Reference: article PMC12627007, “HIV nucleocapsid proteins as targets for novel 1,2-benzisothiazol-3(2H)-one benzenesulfonamides: synthesis and antiretroviral activity” (Frontiers in Microbiology, 2025)
Like-named read-outs stand apart in the source and are kept apart here.

Columns and labels:
[1] = test system: HIV-1 A17 (K103N + Y181C); test: Inhibition of virus-induced cytopathogenicity in MT-4 cells, NNRTI-resistant mutant A17; type: cell-based; details: for EC50: Human immunodeficiency virus 1, MT4, read-out: EC50 A17
Experimental: (§1) HIV-1IIIB and HIV-2 CBL-20 strains were obtained from the supernatants of persistently infected H9/IIIB and CEM cells, respectively. HIV-1 and HIV-2 stock solutions had titres of 4.5 × 10^7 and 1.4 × 10^6 50% cell culture infectious doses (CCID50)/ml, respectively. […] The K103R + V179D + P225H mutant (EFVR) was derived from an IIIB strain passaged in MT-4 cells in the presence of Efavirenz (up to 2 μM). N119, A17 and EFV^R stock solutions had titres of 1.2 × 10^8, 2.1 × 10^7, and 4.0 × 10^7 CCID50/ml, respectively.
(§2) The activity of the test compounds against the replication of HIV-1 wt and mutant strains (N119, A17, EFV^R, AZT^R, MDR, SAQ^R) and HIV-2 wt in acutely infected cells was based on the inhibition of virus-induced cytopathogenicity in MT-4 and C8166 cells, respectively. Briefly, 50 μL of culture medium containing 1 × 10^4 cells was added to each well of flat-bottom microtitre trays containing 50 μL of culture medium with or without different serial concentrations of test compounds. Then, 20 μL of an HIV suspension (containing the appropriate amount of CCID50 required to cause complete cytopathogenicity on day 4, final multiplicity of infection [m.o.i.] 0.01) was added.

[2] = test system: HIV-1 AZTR (67N, 70R, 215F, 219Q); test: Inhibition of virus-induced cytopathogenicity in MT-4 cells, NRTI-resistant mutant AZTR; type: cell-based; details: for EC50: Human immunodeficiency virus 1, MT4, read-out: EC50 AZTR
Experimental: as §1, §2

HIV-1 IIIB strain = test: microbe, parasite or virus in culture; type: cell-based; details: for EC50: Human immunodeficiency virus 1, IIIB
Experimental: as §1, §2

HIV-1 N119 (Y181C) = test: Inhibition of virus-induced cytopathogenicity in MT-4 cells, NNRTI-resistant mutant N119; type: cell-based; details: for EC50: Human immunodeficiency virus 1, MT4, read-out: EC50 N119
Experimental: as §1, §2

[3] = test system: HIV-1 EFVR (K103R + V179D + P225H); test: Inhibition of virus-induced cytopathogenicity in MT-4 cells, NNRTI-resistant mutant EFVR; type: cell-based; details: for EC50: Human immunodeficiency virus 1, MT4, read-out: EC50 EFVR
Experimental: as §1, §2

HIV-2 CBL-20 strain = test: Inhibition of HIV-2-induced cytopathogenicity in C8166 cells (MTT); type: cell-based
Experimental: as §1, §2

[4] = test system: HIV-1 MDR (74V, 41L, 106A, 215Y); test: Inhibition of virus-induced cytopathogenicity in MT-4 cells, NRTI-resistant mutant MDR; type: cell-based; details: for EC50: Human immunodeficiency virus 1, MT4, read-out: EC50 MDR
Experimental: as §1, §2

HIV-1 wt = test: Time of addition assay in MT-4 cells; type: cell-based; details: compound 6 15 μM, EFV 0.05 μM; MT-4, m.o.i. 5
Experimental: 2 × 10^4 MT-4 cells were infected for 1 h at 20 °C with HIV-1 at a high multiplicity of infection (m.o.i. = 5), corresponding to 5 cell culture infectious dose 50 per cell (CCID50/cell).
(§3) Titration was performed in C8166 cells using the standard limiting dilution method (dilution 1:2, four replica wells/dilution) in 96-well plates.
Virus yields were determined using the Reed–Muench method. Bars are mean values, and whiskers are standard deviations (SD) of three independent experiments.

[5] = test system: HIV-1 SAQR (L10F, G48V, L90M); test: Inhibition of virus-induced cytopathogenicity in MT-4 cells, PRI-resistant mutant SAQR; type: cell-based; details: for EC50: Human immunodeficiency virus 1, MT4, read-out: EC50 SAQR
Experimental: as §1, §2

[6] = Cytotoxicity in mock-infected MT-4 cells (MTT method); type: cell-based; details: human
Experimental: as §2, with “added. After incubation at 37 °C, cell viability was determined using the […] (MTT) method ([Pauwels et al., 1988]). The cytotoxicity of the test compounds was evaluated in parallel with their antiviral activity through the viability of mock-infected, treated cells, as monitored by the MTT method and described elsewhere ([Morellet et al., 1994]).” for “added.”

[7] = target: T1, HIV-1 reverse transcriptase (Human immunodeficiency virus type 1 group M subtype B, UniProt P04585); test: Reverse transcriptase enzyme assay; type: biochemical
T1 construct: recombinant HIV-1 reverse transcriptase

[8] = test system: chronically HIV-1-infected H9 cells / uninfected C8166 cells; test: Syncytium formation in chronically infected H9/C8166 cocultures (entry assay); type: cell-based; details: 36 h
Experimental: Chronically infected H9 cells were washed and cocultured with uninfected C8166 cells (ratio 1:500) in the absence or presence of test inhibitors. Following 36 h of incubation at 37 °C, cocultures were monitored by optical microscopy, syncytia were counted, and those found in drug-treated cocultures were reported as a percentage of those counted in untreated cocultures ([Wang et al., 2004]).
In this assay, syncytia were formed as a result of the interaction of env-encoded glycoproteins (present on the outer membrane of chronically infected H9 cells) with the CD4 of cocultured C8166 cells.
Figure 3 Comparative activity of compound 6 (30 μM) and dextran sulphate (0.5 μM) in preventing syncytium formation in chronically infected H9/C8166 cocultures. The H9/C8166 ratio was […]. The cells were incubated for 36 h at 37 °C. Data represent mean values of at least three independent determinations of syncytial numbers using an optical microscope. Bars are mean values, and whiskers are standard deviations (SD) of at least three independent experiments.

cell-free HIV-1 = test: Virucidal activity against cell-free HIV-1 (Reed-Muench titration); type: cell-based; details: for Infectivity inactivation of cell-free HIV-1: 37 °C
Experimental: (§4) Cell-free, high-titre HIV-1 and HIV-2 stock solutions were exposed to the test compounds for 2 h at 0 °C or 37 °C. At the end of incubation, residual infectivity was determined using the Reed–Muench end-point titration method, as described below.
as §3

[9] = microbe, parasite or virus in culture; type: cell-based, HIV-1; details: all tested strains (HIV-1 wt, mutants, HIV-2)
Experimental: as §1, §2

[10] = target: T2, HIV-1 recombinant integrase (rIN) (Human immunodeficiency virus type 1 group M subtype B, UniProt P04585); test: Integrase (rIN) enzyme assays: 3'-processing and strand transfer; type: biochemical; details: for IC50: recombinant HIV-1 integrase
T2 construct: HIV-1 recombinant integrase (rIN); made in house
Source text: ^aCompound concentration (µM) required to reduce the amount of 3’-end-labeled duplex of 21/19mers substrates, in 3’-processing and strand-transfer reactions catalyzed by the recombinant HIV-1 integrase, by 50%. Data represent mean values for three independent determinations.

cell-free HIV-2 = test: Virucidal activity against cell-free HIV-2 (Reed-Muench titration); type: cell-based
Experimental: as §4, §3

[11] = MT4, read-out: EC50 HIV-1 (Table 2)
[12] = Human immunodeficiency virus 2, C8166, read-out: EC50 HIV-2
[13] = Human immunodeficiency virus 2, C8166, read-out: EC50 HIV-2 (Table 2)
[14] = 0 °C, compound 6 80 μM, AMPH-B 100 μM

With `O=C1Nc2ccc(Cl)cc2[C@@](C#CC2CC2)(C(F)(F)F)O1` [EFV, efavirenz, reference compound] as the molecule, how does the EC50 [1] read?
The EC50 was 0.3 ± 0.009 µM.

What about the EC50 [2] of the same molecule?
The EC50 was 0.002 ± 0.0003 µM.

And the EC50 (HIV-1 IIIB strain; MT4, read-out: EC50 HIV-1)?
The EC50 was 0.002 ± 0.0003 µM.

What about the EC50 (HIV-1 IIIB strain; [11]) of the same molecule?
Its EC50 is 0.002 ± 0.0003 µM.

What about the EC50 (HIV-1 N119 (Y181C)) of the same molecule?
The EC50 was 0.008 ± 0.003 µM.

What about the EC50 [3] of the same molecule?
Its EC50 is 3 ± 1 µM.

And the EC50 (HIV-2 CBL-20 strain; [12])?
Its EC50 is > 20 µM.

What about the EC50 (HIV-2 CBL-20 strain; [13]) of the same molecule?
The EC50 was > 20 µM.

What about the EC50 [4] of the same molecule?
The EC50 was 0.004 µM.

And the “Infectious virus yield when compound present only during the 1-h infection period” value (HIV-1 wt)?
The value was “infectious virus yield similar to that of the untreated infected controls”.

And the “Time of addition p.i. up to which the compound still prevents virus yield” value (HIV-1 wt)?
Its value is ≤ 4 h.

What about the EC50 [5] of the same molecule?
Its EC50 is 0.007 ± 0.005 µM.

What about the CC50 at 4 days ([6]; MT-4, MTT method) of the same molecule?
The CC50 at 4 days was 30 ± 5 µM.

For `O=c1c2ccccc2sn1NS(=O)(=O)c1ccccc1` [Compound 6, N-(3-Oxo-1,2-benzisothiazol-2(3H)-yl)benzenesulfonamide], which EC50 [1] is on record?
Its EC50 is 8 ± 1 µM.

And the “Selectivity Index (SI = CC50/EC50) A17” value ([1]; in round brackets)?
The value was 10.

What about the “Inhibition of recombinant HIV-1 RT” value ([7]; at concentrations of 30 μM) of the same molecule?
The value was “none of the benzenesulfonamides were active”.

And the IC50 ([7]; virion-associated RT)?
The IC50 was > 30 µM.

And the “Interference with syncytia formation / very early events (adsorption/attachment/fusion)” value ([8]; 30 μM)?
The value was “did not interfere”.

And the “Effect on HIV-1 infectivity, incubation at 0 °C” value (cell-free HIV-1; [14])?
Its value is “failed to affect HIV-1 infectivity”.

And the “Infectivity inactivation of cell-free HIV-1” value (cell-free HIV-1; 25 and 12.5 μM)?
Its value is “only marginal or no effects”.

And the “Infectivity inactivation of cell-free HIV-1” value (cell-free HIV-1; 100 and 50 μM)?
The value was “strongly inactivated the infectivity”.

And the “Inactivation of HIV-1 infectivity” value (cell-free HIV-1; 2 h at 37 °C, compound 6 80 μM, AMPH-B 100 μM)?
The value was “more than 3 log10”.

What about the EC50 [2] of the same molecule?
The EC50 was 6 ± 0.7 µM.

And the “Selectivity Index (SI = CC50/EC50) AZTR” value ([2]; in round brackets)?
The value was 14.

And the EC50 (HIV-1 IIIB strain; MT4, read-out: EC50 HIV-1)?
The EC50 was 8 ± 3 µM.

And the EC50 (HIV-1 IIIB strain; [11])?
The EC50 was 8 ± 3 µM.

What about the “Selectivity Index (SI = CC50/EC50) HIV-1” value (HIV-1 IIIB strain; IIIB strain, in round brackets) of the same molecule?
The value was 10.

And the “Selectivity Index (SI) against all tested strains” value [9]?
Its value is “around 10”.

And the EC50 (HIV-1 N119 (Y181C))?
Its EC50 is 7 ± 1.5 µM.

What about the “Selectivity Index (SI = CC50/EC50) N119” value (HIV-1 N119 (Y181C); in round brackets) of the same molecule?
Its value is 12.

What about the “Inhibition of recombinant HIV-1 IN” value ([10]; at concentrations of 30 μM) of the same molecule?
Its value is “none of the benzenesulfonamides were active”.

And the IC50 ([10]; read-out: IC50 3'-Processing)?
The IC50 was > 30 µM.

And the IC50 ([10]; read-out: IC50 Strand-transfer)?
The IC50 was > 30 µM.

What about the “Effect on HIV-2 infectivity, incubation at 0 °C” value (cell-free HIV-2; [14]) of the same molecule?
Its value is “failed to significantly affect HIV-2 infectivity”.

And the “Infectivity inactivation of cell-free HIV-2” value (cell-free HIV-2; 25 and 12.5 μM, 37 °C)?
The value was “only marginal or no effects”.

And the “Inactivation of HIV-2 virion infectivity” value (cell-free HIV-2; 37 °C, compound 6 80 μM, AMPH-B 100 μM)?
The value was “approximately 2 log10”.

And the “Infectivity inactivation of cell-free HIV-2” value (cell-free HIV-2; 100 and 50 μM, 37 °C)?
The value was “strongly inactivated the infectivity”.

And the EC50 [3]?
The EC50 was 7 ± 2 µM.

And the “Selectivity Index (SI = CC50/EC50) EFVR” value ([3]; in round brackets)?
The value was 12.

And the EC50 (HIV-2 CBL-20 strain; [12])?
The EC50 was 7 ± 0.7 µM.

What about the EC50 (HIV-2 CBL-20 strain; [13]) of the same molecule?
Its EC50 is 7 ± 0.7 µM.

What about the “Selectivity Index (SI = CC50/EC50) HIV-2” value (HIV-2 CBL-20 strain; in round brackets) of the same molecule?
The value was 12.

And the EC50 [4]?
Its EC50 is 4 ± 1.5 µM.

And the “Selectivity Index (SI = CC50/EC50) MDR” value ([4]; in round brackets)?
Its value is 21.

And the “Infectious virus yield when compound present only during the 1-h infection period” value (HIV-1 wt)?
Its value is “infectious virus yield similar to that of the untreated infected controls”.

What about the “Time of addition p.i. up to which the compound still prevents virus yield” value (HIV-1 wt) of the same molecule?
The value was “up to 12 h”.

And the EC50 [5]?
The EC50 was 8 ± 0.7 µM.

And the “Selectivity Index (SI = CC50/EC50) SAQR” value ([5]; in round brackets)?
Its value is 10.

What about the CC50 at 4 days [6] of the same molecule?
Its CC50 at 4 days is 86 ± 4 µM.

Which “Prevention of syncytia formation” value ([8]; 0.5 μM) does the source give for dextran sulphate [reference compound] here?
The value was 98%.
